Results reported in publication PMC6609034, “Unraveling the role of the secretor antigen in human rotavirus attachment to histo-blood group antigens” (PLoS Pathogens, 2019).

Assays:
[1] = molecular target: T1, VP8* P[8]Wa (lineage I) (Rotavirus A, UniProt P11193); assay: SPR apparent affinity of VP8* for immobilized HBGAs; format: binding, human rotavirus; details: PAA-biotin glycan immobilized on SA chip, VP8* as analyte, 10°C, ± standard deviation, read-out: Kda (apparent affinity constant)
T1 construct: amino acids 64–224 from the VP4 protein of rotavirus; GST (N); made in house; host or cells: E. coli BL21 (DE3)
T1 sequence (P11193 64-224): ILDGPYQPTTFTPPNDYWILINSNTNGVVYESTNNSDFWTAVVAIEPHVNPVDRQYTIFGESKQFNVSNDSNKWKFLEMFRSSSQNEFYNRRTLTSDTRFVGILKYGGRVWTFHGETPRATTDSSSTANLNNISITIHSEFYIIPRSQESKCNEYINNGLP
Method: (§1) The affinity assays were based on SPR and performed in a Biacore T100 instrument (GE Healthcare). H1 PAA-biotin and LNB PAA-biotin were diluted to a concentration of 1 mg/ml in water and captured with streptavidin present in a SA sensor chip (GE Healthcare). H1 was immobilized in channel 2 (630 RU) of the sensor chip and LNB was immobilized in channel 4 (624 RU). The channels 1 and 3 were used as the reference surfaces for channels 2 and 4, respectively. The immobilization process was performed by conditioning the sensor chip surface with three consecutive 1-minute injections of 1 M NaCl 50 mM NaOH before biotinylated ligands were immobilized at a flow rate of 15 μl/min. The affinity assays of VP8* polypeptides to biotinylated sugars were performed at 10°C using 1X HBS-EP^+ buffer (0.01 M HEPES pH 7.4, 0.15 M NaCl, 3 mM EDTA, 0.005% Surfactant P20), a flow rate of 5 μl/min with 2700 seconds of contact time and a dissociation time of 1800 seconds. The regeneration step consisted in a wash step with 10 mM Glycine-HCl pH 2 for 20 seconds at the same flow rate. The assays were performed with purified VP8* at different concentrations (45; 137; 411; 1,234; 3,703; 11,111; 33,333; 100,000 and 200,000 nM). Each run included three blanks without sample. The affinity data were obtained after analysis of sensorgrams performed with the BIAevaluation 2.0 software (GE Healthcare). Since multivalent oligosaccharides are immobilized on a sensor chip surface, avidity and rebinding effects can take place and apparent affinity constants (Kda) are calculated with this experimental setup. Kda values were obtained from the steady-state kinetics experiment as the ligand concentration needed to achieve a half-maximum binding at equilibrium. The experiments were made in triplicate. Graphical representation of signal/concentration curves were plotted using GraphPad Prism 6 for MacOsX.

[2] = molecular target: T2, VP8* P[8]c (clinical isolate, lineage III) (Rotavirus A, UniProt A0A0S0VKY7); assay: as above; format: binding, human rotavirus; details: PAA-biotin glycan immobilized on SA chip, VP8* as analyte, 10°C, ± standard deviation, read-out: Kda (apparent affinity constant)
T2 sequence (A0A0S0VKY7 1-161): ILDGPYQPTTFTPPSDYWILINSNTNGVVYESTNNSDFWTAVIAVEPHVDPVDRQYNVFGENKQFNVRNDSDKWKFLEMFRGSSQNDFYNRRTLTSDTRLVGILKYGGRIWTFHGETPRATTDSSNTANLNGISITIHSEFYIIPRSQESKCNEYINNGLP
Method: as §1

[3] = molecular target: T3, P[8]c M4(Ile173Val) VP8* (Rotavirus A, UniProt A0A0S0VKY7, I110V); assay: as above; format: binding, human rotavirus; details: for Kd: PAA-biotin glycan immobilized on SA chip, VP8* as analyte, 10°C, ± standard deviation, read-out: Kda (apparent affinity constant)
T3 sequence (A0A0S0VKY7 1-161 I110V): T2 sequence (A0A0S0VKY7 1-161)
Text: Selected residues in the GST::VP8* P[8] were replaced for alanine or valine according to the structural data of the LNB binding site. Four mutants (M1–M4) were constructed using a Quick-Change site-directed mutagenesis kit (Stratagene) and appropriate oligonucleotides (S5 Table), and the DNA changes were confirmed by DNA sequencing. Mutant M1, M2 and M3 contained changes in the codons for tryptophan 174, arginine 209 and glutamic 212 residues, respectively, that introduced an alanine at each position. Mutant M4 substituted isoleucine 173 by valine.
as §1, with “The affinity data were obtained after analysis of sensorgrams performed with the BIAevaluation 2.0 software (GE Healthcare).” left out, “Kda values were obtained from the steady-state kinetics experiment as the ligand concentration needed to achieve a half-maximum binding at equilibrium. The experiments were made in triplicate. Graphical representation of signal/concentration curves were plotted using GraphPad Prism 6 for MacOsX.” left out

[4] = molecular target: VP8* from Rotarix strain (lineage I); assay: SPR interaction of VP8* with immobilized HBGAs; format: binding, human rotavirus
Method: as §1

[5] = molecular target: VP8* from the lineage IV strain (P[8]LIV); assay: SPR interaction of VP8* with immobilized HBGAs; format: binding, human rotavirus
Method: as §1

[6] = system: VP8* P[8]; assay: ELISA-like binding assay to biotinylated HBGAs; parameters: species or system human rotavirus; details: biotinylated PAA glycan 2 μg/ml, VP8* 10 μg/ml
Text: A panel of biotinylated sugar antigens including Le^a, Le^b, Le^c (lacto-N-biose; LNB), H type-1, H type-2 and blood group A and B trisaccharides were purchased from Glyconz (Fig 1 and S1 Table). These glycans are biotinylated neoglyconjugates of a poly[N-(2-hydroxyethyl)acrylamide] (PAA) with a size from 30 to 50 KDa. This forms a flexible polymer ideal for a multivalent presentation of glycans. Immobilized streptavidin F96 black plates (Nunc) were coated with the biotinylated oligosaccharides (2 μg/ml) in milli-Q water and incubated during 1 hour at 37°C. After functionalization the plates were washed once with PBS containing 0.05% of Tween 20 (PBS-T) and the VP8* proteins were added (10 μg/ml) and incubated at 4°C overnight. After three washes with PBS-T, a rabbit polyclonal antibody anti GST (1:1,000) (Abcam) was added and the plates were incubated one hour at 37°C. Then, the plates were washed three times with PBS-T and incubated for 1 h at 37°C with 1:10,000 dilution of horseradish peroxidase (HRP)-conjugated goat anti-rabbit (Abcam). After three washes with PBS-T, the binding was detected using QuantaBlue reagent (ThermoFisher) kit, as recommended by the manufacturer. Fluorescence units were registered by a MultiScan microplate reader. All the binding assays were performed in triplicate.

Structure (SMILES) | Kd [1] | Kd [2] | Kd [3] | interaction by SPR [4] | interaction by SPR [5] | binding (ELISA-like) [6] | Kda of VP8 I173V compared to the wild-type protein ([3]; higher than wild-type P[8]c)
CC(=O)NC1C(O)OC(CO)C(O)C1OC1OC(CO)C(O)C(O)C1O (stereo not drawn) [LNB, Gal-β1,3-GlcNAc] | 66.5 µM | 52.1 µM | 49.4 µM | too low to be determined | too low to be determined | recognize | –
CC(=O)NC1C(O)OC(CO)C(O)C1OC1OC(CO)C(O)C(O)C1OC1OC(C)C(O)C(O)C1O (stereo not drawn) [H1, Fuc-α1,2-Gal-β1,3-GlcNAc] | 80.2 µM | 27.9 µM | 39 µM | too low to be determined | too low to be determined | recognized | 1.4 fold
